target: T1, Purified ERAP1(37-941)-10His (ERAP1) (Homo sapiens, UniProt Q9NZ08); experiment: ERAP1 mediated hydrolysis of an amide substrate measured in a biochemical system (10-mer decapeptide substrate); details: 10-mer substrate, 23° C. for 1 h, excitation 279 nm and emission 355 nm; read-out: IC50 vs Decapeptide WRVYEKC(Dnp)ALK-acid (where Dnp is Dinitrophenyl maleimide) (10-mer)
T1 construct: Purified ERAP1(37-941)-10His (ERAP1); 10His (C)
Protocol: Biological Assay 1: ERAP1 Mediated Hydrolysis of an Amide Substrate Measured in a Biochemical System
1× Assay buffer (AB): 25 mM Bis-tris propane, 0.05% w/v Hydroxypropylmethylcellulose pH 7.75 made with Optima grade water
Decapeptide WRVYEKC(Dnp)ALK-acid (where Dnp is Dinitrophenyl maleimide) (10-mer) L-Leucine 7-amido-4-methylcoumarin (L-AMC)
12.5 μL ERAP1 enzyme in 1×AB was combined with 250 nL test compound in DMSO. 12.5 μL of either 240 μM L-AMC in 1×AB or 100 μM 10-mer in 1×AB was added to the reaction and incubated at 23° C. for 1 h. For detection, plates were read at excitation 365 nm and emission 442 nm (L-AMC) or excitation 279 nm and emission 355 nm (10-mer). Compound IC50 was determined using a 4 parameter equation.

T1 sequence (Q9NZ08 37-941): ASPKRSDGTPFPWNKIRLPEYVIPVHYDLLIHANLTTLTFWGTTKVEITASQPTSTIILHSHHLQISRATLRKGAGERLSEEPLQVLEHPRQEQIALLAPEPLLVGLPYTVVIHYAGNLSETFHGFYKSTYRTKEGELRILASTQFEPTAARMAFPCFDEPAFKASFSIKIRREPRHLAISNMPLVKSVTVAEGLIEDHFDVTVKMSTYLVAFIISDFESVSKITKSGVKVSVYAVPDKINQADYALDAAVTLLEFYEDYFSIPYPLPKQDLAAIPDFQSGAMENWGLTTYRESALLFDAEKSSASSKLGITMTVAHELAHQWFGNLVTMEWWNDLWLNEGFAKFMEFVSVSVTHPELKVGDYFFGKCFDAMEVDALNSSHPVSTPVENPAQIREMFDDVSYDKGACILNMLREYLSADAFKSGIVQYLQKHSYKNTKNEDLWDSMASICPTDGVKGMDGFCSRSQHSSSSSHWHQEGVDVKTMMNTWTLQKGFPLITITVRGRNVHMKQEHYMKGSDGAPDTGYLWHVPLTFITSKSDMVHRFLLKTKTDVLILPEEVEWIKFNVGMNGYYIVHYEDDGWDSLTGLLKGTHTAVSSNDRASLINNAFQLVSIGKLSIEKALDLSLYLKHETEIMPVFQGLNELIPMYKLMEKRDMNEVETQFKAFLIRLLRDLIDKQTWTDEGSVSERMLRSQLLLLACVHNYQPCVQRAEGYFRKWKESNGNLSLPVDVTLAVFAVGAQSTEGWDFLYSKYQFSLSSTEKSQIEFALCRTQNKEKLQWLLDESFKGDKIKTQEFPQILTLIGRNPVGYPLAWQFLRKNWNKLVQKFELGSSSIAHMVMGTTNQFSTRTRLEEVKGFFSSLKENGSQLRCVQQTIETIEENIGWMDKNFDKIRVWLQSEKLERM

Question: How did the IC50 turn out when `COc1ccc(C(=O)O)cc1S(=O)(=O)Nc1cc(C(F)(F)F)ccc1-c1ccccc1` [Example 1, 4-methoxy-3-(N-(4-(trifluoromethyl)-[1,1′-biphenyl]-2-yl)sulfamoyl)benzoic acid] was run?
Answer: < 500 nM

Question: For `COc1ccc(C(=O)O)cc1S(=O)(=O)Nc1cc(C(F)(F)F)ccc1-c1cccnc1` [Example 2, 4-methoxy-3-(N-(2-(pyridin-3-yl)-5-(trifluoromethyl)phenyl)sulfamoyl)benzoic acid], which IC50 is on record?
Answer: < 500 nM

Question: For `COc1ccc(C(=O)O)cc1S(=O)(=O)Nc1cc(C(F)(F)F)ccc1-c1cccs1` [Example 3, 4-methoxy-3-(N-(2-(thiophen-2-yl)-5-(trifluoromethyl)phenyl)sulfamoyl)benzoic acid], which IC50 is on record?
Answer: < 500 nM

Question: `COc1ccc(C(=O)O)cc1S(=O)(=O)Nc1cc(C(F)(F)F)ccc1-c1cc(C)nn1C` [Example 4, 3-(N-(2-(1,3-dimethylpyrazol-5-yl)-5-(trifluoromethyl)phenyl)sulfamoyl)-4-methoxybenzoic acid] was tested. Which IC50 did it give?
Answer: < 5000 nM

Question: With `COc1ccc(C(=O)O)cc1S(=O)(=O)Nc1cc(C(F)(F)F)ccc1-c1ccnn1CC(C)C` [Example 5, 3-(N-(2-(1-isobutylpyrazol-5-yl)-5-(trifluoromethyl)phenyl)sulfamoyl)-4-methoxybenzoic acid] as the molecule, how does the IC50 read?
Answer: < 5000 nM

Question: `COc1ccc(C(=O)O)cc1S(=O)(=O)Nc1cc(C(F)(F)F)ccc1-c1cccc(C)c1` [Example 6, 4-methoxy-3-(N-(3′-methyl-4-(trifluoromethyl)-[1,1′-biphenyl]-2-yl)sulfamoyl)benzoic acid] was tested. Which IC50 did it give?
Answer: < 500 nM

Question: With `COc1ccc(C(=O)O)cc1S(=O)(=O)Nc1cc(C(F)(F)F)ccc1-c1cccc(C#N)c1` [Example 7, 3-(N-(3′-cyano-4-(trifluoromethyl)-[1,1′-biphenyl]-2-yl)sulfamoyl)-4-methoxybenzoic acid] as the molecule, how does the IC50 read?
Answer: < 500 nM

Question: Which IC50 does the source give for `COc1ccc(C(=O)O)cc1S(=O)(=O)Nc1cc(C(F)(F)F)ccc1-c1ccccc1C` [Example 8, 4-methoxy-3-(N-(2′-methyl-4-(trifluoromethyl)-[1,1′-biphenyl]-2-yl)sulfamoyl)benzoic acid] here?
Answer: < 500 nM

Question: `COc1ccc(C(=O)O)cc1S(=O)(=O)Nc1cc(C(F)(F)F)ccc1-c1ccccc1F` [Example 9, 3-(N-(2′-fluoro-4-(trifluoromethyl)-[1,1′-biphenyl]-2-yl)sulfamoyl)-4-methoxybenzoic acid] was tested. Which IC50 did it give?
Answer: < 500 nM

Question: `COc1ccc(C(=O)O)cc1S(=O)(=O)Nc1cc(C(F)(F)F)ccc1-c1ccccc1Cl` [Example 10, 3-(N-(2′-chloro-4-(trifluoromethyl)-[1,1′-biphenyl]-2-yl)sulfamoyl)-4-methoxybenzoic acid] was tested. Which IC50 did it give?
Answer: < 5000 nM

Question: `COc1ccccc1-c1ccc(C(F)(F)F)cc1NS(=O)(=O)c1cc(C(=O)O)ccc1OC` [Example 11, 4-methoxy-3-(N-(2′-methoxy-4-(trifluoromethyl)-[1,1′-biphenyl]-2-yl)sulfamoyl)benzoic acid] was tested. Which IC50 did it give?
Answer: < 5000 nM

Question: For `COc1ccc(C(=O)O)cc1S(=O)(=O)Nc1cc(C(F)(F)F)ccc1-c1ccc(F)cc1` [Example 12, 3-(N-(4′-fluoro-4-(trifluoromethyl)-[1,1′-biphenyl]-2-yl)sulfamoyl)-4-methoxybenzoic acid], which IC50 is on record?
Answer: < 500 nM

Question: Which IC50 does the source give for `COc1ccc(C(=O)O)cc1S(=O)(=O)Nc1cc(C(F)(F)F)ccc1-c1ccccc1C#N` [Example 13, 3-(N-(2′-cyano-4-(trifluoromethyl)-[1,1′-biphenyl]-2-yl)sulfamoyl)-4-methoxybenzoic acid] here?
Answer: < 5000 nM

Question: With `COc1ccc(C(=O)O)cc1S(=O)(=O)Nc1cc(C(F)(F)F)ccc1-c1ccncc1` [Example 14, 4-methoxy-3-(N-(2-(pyridin-4-yl)-5-(trifluoromethyl)phenyl)sulfamoyl)benzoic acid] as the molecule, how does the IC50 read?
Answer: > 5000 nM

Question: With `COc1ccc(C(=O)O)cc1S(=O)(=O)Nc1cc(C(F)(F)F)ccc1-c1cccc(F)c1` [Example 15, 3-(N-(3′-fluoro-4-(trifluoromethyl)-[1,1′-biphenyl]-2-yl)sulfamoyl)-4-methoxybenzoic acid] as the molecule, how does the IC50 read?
Answer: < 500 nM

Question: How did the IC50 turn out when `COc1ccc(C(=O)O)cc1S(=O)(=O)Nc1cc(C(F)(F)F)ccc1-c1ccc(C#N)cc1` [Example 16, 3-(N-(4′-cyano-4-(trifluoromethyl)-[1,1′-biphenyl]-2-yl)sulfamoyl)-4-methoxybenzoic acid] was run?
Answer: < 5000 nM

Question: How did the IC50 turn out when `COc1cccc(-c2ccc(C(F)(F)F)cc2NS(=O)(=O)c2cc(C(=O)O)ccc2OC)c1` [Example 17, 4-methoxy-3-(N-(3′-methoxy-4-(trifluoromethyl)-[1,1′-biphenyl]-2-yl)sulfamoyl)benzoic acid] was run?
Answer: < 5000 nM

Question: With `COc1ccc(C(=O)O)cc1S(=O)(=O)Nc1cc(C(F)(F)F)ccc1-c1ccoc1` [Example 18, 3-(N-(2-(furan-3-yl)-5-(trifluoromethyl)phenyl)sulfamoyl)-4-methoxybenzoic acid] as the molecule, how does the IC50 read?
Answer: < 500 nM

Question: With `CCc1ccc(C(=O)O)cc1S(=O)(=O)Nc1cc(C(F)(F)F)ccc1-c1ccccc1` [Example 19, 4-ethyl-3-(N-(4-(trifluoromethyl)-[1,1′-biphenyl]-2-yl)sulfamoyl) benzoic acid] as the molecule, how does the IC50 read?
Answer: < 500 nM

Question: For `COc1ccc(C(=O)O)cc1S(=O)(=O)Nc1cc(C(F)(F)F)ccc1-c1ccsc1` [Example 20, 4-methoxy-3-(N-(2-(thiophen-3-yl)-5-(trifluoromethyl)phenyl)sulfamoyl) benzoic acid], which IC50 is on record?
Answer: < 500 nM

Question: With `CCc1ccc(C(=O)O)cc1S(=O)(=O)Nc1cc(C(F)(F)F)ccc1-c1cccc(C#N)c1` [Example 21, 3-(N-(3′-cyano-4-(trifluoromethyl)-[1,1′-biphenyl]-2-yl)sulfamoyl)-4-ethylbenzoic acid] as the molecule, how does the IC50 read?
Answer: < 500 nM

Question: Which IC50 does the source give for `CCc1ccc(C(=O)O)cc1S(=O)(=O)Nc1cc(C(F)(F)F)ccc1-c1cccs1` [Example 22, 4-ethyl-3-(N-(2-(thiophen-2-yl)-5-(trifluoromethyl)phenyl)sulfamoyl)benzoic acid] here?
Answer: < 500 nM

Question: With `COc1ccc(C(=O)O)cc1S(=O)(=O)Nc1cc(C(F)(F)F)ccc1-c1ccco1` [Example 23, 3-(N-(2-(furan-2-yl)-5-(trifluoromethyl)phenyl)sulfamoyl)-4-methoxybenzoic acid] as the molecule, how does the IC50 read?
Answer: < 500 nM

Question: `CCc1ccc(C(=O)O)cc1S(=O)(=O)Nc1cc(C(F)(F)F)ccc1-c1cccc(F)c1` [Example 24, 4-ethyl-3-(N-(3′-fluoro-4-(trifluoromethyl)-[1,1′-biphenyl]-2-yl)sulfamoyl) benzoic acid] was tested. Which IC50 did it give?
Answer: < 500 nM

Question: How did the IC50 turn out when `COc1ccc(C(=O)O)cc1S(=O)(=O)Nc1cc(C(F)(F)F)ccc1-c1cnco1` [Example 25, 4-methoxy-3-(N-(2-(oxazol-5-yl)-5-(trifluoromethyl)phenyl)sulfamoyl) benzoic acid] was run?
Answer: < 5000 nM

Question: Which IC50 does the source give for `COc1ccc(C(=O)O)cc1S(=O)(=O)Nc1cc(C(F)(F)F)ccc1-c1ccccn1` [Example 26, 4-methoxy-3-(N-(2-(pyridin-2-yl)-5-(trifluoromethyl)phenyl)sulfamoyl) benzoic acid] here?
Answer: < 500 nM

Question: `CCc1ccc(C(=O)O)cc1S(=O)(=O)Nc1cc(C(F)(F)F)ccc1-c1cccnc1` [Example 27, 4-ethyl-3-(N-(2-(pyridin-3-yl)-5-(trifluoromethyl)phenyl)sulfamoyl)benzoic acid] was tested. Which IC50 did it give?
Answer: < 500 nM

Question: For `COc1ccc(C(=O)O)cc1S(=O)(=O)Nc1cc(C(F)(F)F)ccc1-n1cncn1` [Example 28, 3-(N-(2-(1,2,4-triazol-1-yl)-5-(trifluoromethyl)phenyl)sulfamoyl)-4-methoxybenzoic acid], which IC50 is on record?
Answer: > 5000 nM

Question: With `CCc1ccc(C(=O)O)cc1S(=O)(=O)Nc1cc(C(F)(F)F)ccc1-n1cncn1` [Example 29, 3-(N-(2-(1,2,4-triazol-1-yl)-5-(trifluoromethyl)phenyl)sulfamoyl)-4-ethylbenzoic acid] as the molecule, how does the IC50 read?
Answer: < 5000 nM

Question: With `COc1ccc(C(=O)O)cc1S(=O)(=O)Nc1cc(C(F)(F)F)ccc1-n1cccn1` [Example 30, 3-(N-(2-(pyrazol-1-yl)-5-(trifluoromethyl)phenyl)sulfamoyl)-4-methoxybenzoic acid] as the molecule, how does the IC50 read?
Answer: < 5000 nM

Question: Which IC50 does the source give for `CCc1ccc(C(=O)O)cc1S(=O)(=O)Nc1cc(C(F)(F)F)ccc1-n1cccn1` [Example 31, 3-(N-(2-(pyrazol-1-yl)-5-(trifluoromethyl)phenyl)sulfamoyl)-4-ethylbenzoic acid] here?
Answer: < 500 nM

Question: How did the IC50 turn out when `CCc1ccc(C(=O)O)cc1S(=O)(=O)Nc1cc(S(C)(=O)=O)ccc1-c1ccccc1` [Example 32, 4-ethyl-3-(N-(4-(methylsulfonyl)-[1,1′-biphenyl]-2-yl)sulfamoyl)benzoic acid] was run?
Answer: < 500 nM

Question: `CCc1ccc(C(=O)O)cc1S(=O)(=O)Nc1cc(S(C)(=O)=O)ccc1-c1cccc(F)c1` [Example 33, 4-ethyl-3-(N-(3′-fluoro-4-(methylsulfonyl)-[1,1-biphenyl]-2-yl)sulfamoyl)benzoic acid] was tested. Which IC50 did it give?
Answer: < 500 nM

Question: How did the IC50 turn out when `CCc1ccc(C(=O)O)cc1S(=O)(=O)Nc1cc(S(C)(=O)=O)ccc1-c1cccs1` [Example 34, 4-ethyl-3-(N-(5-(methylsulfonyl)-2-(thiophen-2-yl)phenyl)sulfamoyl) benzoic acid] was run?
Answer: < 500 nM

Question: With `COc1ccc(C(=O)O)cc1S(=O)(=O)Nc1cc(C(F)(F)F)ccc1-n1cccc1` [Example 35, 3-(N-(2-(pyrrol-1-yl)-5-(trifluoromethyl)phenyl)sulfamoyl)-4-methoxybenzoic acid] as the molecule, how does the IC50 read?
Answer: < 500 nM

Question: `CCc1ccc(C(=O)O)cc1S(=O)(=O)Nc1cc(C(F)(F)F)ccc1-n1cccc1` [Example 36, 3-(N-(2-(pyrrol-1-yl)-5-(trifluoromethyl)phenyl)sulfamoyl)-4-ethylbenzoic acid] was tested. Which IC50 did it give?
Answer: < 500 nM

Reference: US12023333B2, “Phenyl-sulfamoyl.benzoyc acids as ERAP1 modulators” (GREY WOLF THERAPEUTICS LIMITED, priority 2019, dated 2024)
